Results: patent US20120202825A1, “Soluble Salts of Thieno [2,3-d] Pyrimidine Derivatives” (priority 2011, published 2012)
Values belong to the compound of their own block, whether it stands above or below them.

Assays:
[1] = Storage at 40° C./75% RH (XRPD, HPLC purity, colour); assay type: physicochemical; settings: 4 weeks at 40° C./75% RH under ambient light conditions
[2] = test system: stress-induced accelerated colonic transit; assay: Water avoidance stress (WAS) fecal pellet output, model of increased colonic transit; assay type: in vivo, rat
Method: Preliminary testing in the water avoidance stress model confirmed that there exists an association between stress and altered colonic motility. Fecal pellet output was measured by counting the total number of fecal pellets produced during 1 hour of WAS. Using the WAS model, the effect of MCI-225 was compared to the effects of ondansetron (5-HT3 antagonist) or nisoxetine (noradrenaline reuptake inhibitor—NARI) to affect fecal pellet output.
Adult male F-344 rats, supplied by Charles River Laboratories and weighing 270-350 g, were used to complete this study. The rats were housed 2 per cage under standard conditions. Following one to two weeks of acclimatization to the animal facility, the rats were brought to the laboratory and handled daily for another week to acclimatize them to laboratory conditions and to the research associate who performed the studies. All procedures used in this study were approved in accordance with facility standards.
All rats underwent sham stress (1-hour in stress chamber without water) for 2-4 consecutive days before undergoing WAS (sham was performed until rats produced 0-1 pellet per hour for 2 consecutive days). At the end of the 1-hour stress period, the fecal pellets were counted and recorded.
WAS causes an acceleration of colonic transit, which can be quantified by counting the number of fecal pellets, produced during the stress procedure. Rats were placed for 1-hour into a stress chamber onto a raised platform 7.5 cm×7.5 cm×9 cm (L×W×H) in the center of a stress chamber filled with room temperature water 8 cm in depth. The stress chamber was constructed from a rectangular plastic tub (40.2×60.2×31.2 cm).
Control drugs for this study were ondansetron and nisoxetine. Ondansetron was supplied from APIN Chemicals LTD. Nisoxetine was supplied by Tocris. MCI-225 was provided by Mitsubishi Pharma Corp. All drugs were dissolved in a vehicle of 100% propylene glycol (1,2-propanediol) by sonicating for a period of 10 minutes. […]
Statistical significance was assessed using one-way ANOVA followed by Tukey post-test. […]

[3] = test system: small intestinal transit; assay: Small Intestinal Transit Rodent Model (charcoal meal); assay type: in vivo, rat
Method: Following an overnight fast, rats were brought to the laboratory in their home cages and received an i.p. injection of one of the following: […] Control rats received no treatment. The treated rats were placed back in the home cages and after 30 min, were fed a 2 mL charcoal meal via an oral gavage. Small intestinal transit was measured following 15 min test-period. Each rat was placed briefly in a glass chamber with IsoFlo for anesthesia and sacrificed. The stomach and the small intestine were removed and the total length of the small intestine was measured. Transit was then measured as the distance that the charcoal meal had traveled along the small intestine and expressed as % of the total length. Animals were randomly assigned to experimental groups and experiments were performed as illustrated in Table 3. Ondansetron was supplied from APIN Chemicals LTD. […] MCI-225 was provided by Mitsubishi Pharma Corp. All drugs were dissolved in a vehicle of 100% propylene glycol (1,2-Propanediol) by sonicating for 10 min. Propylene glycol was obtained from Sigma Chemical Co. Ondansetron, a 5-HT3-receptor antagonist was dosed i.p. at 1, 5, and 10 mg/kg. […] All doses were delivered in a final volume of 200 μL. Animals in the vehicle control group received 200 μL of 100% Propylene glycol and animals in the normal control group were untreated. Adult male F-344 rats (230-330 g) were used in the study. The rats were housed 2 per cage under standard conditions. The animals were fed a standard rodent diet and food and water were provided “ad libitum”. Rats were allowed to acclimatize to the animal facility for one week prior to the transit experiments. […] The distance traveled by the charcoal meal was quantified as a percent of the small intestinal length, using the following equation: Transit(%)=cm traveled by meal/cm total small intestinal length×100 […] […] Differences between individual dose groups within treatments and comparisons between drug-treated and vehicle-treated groups were determined using an unpaired t test considering that when % is used as a relative unit, t-statistic is relevant. […]

[4] = test system: cisplatin-induced emesis; assay: Cisplatin-induced emesis in the ferret; assay type: in vivo, ferret (Mustela putario furo); settings: 5 mg/kg and 10 mg/kg i.p.
Method: Adult male ferrets (Mustela putario furo) weighing 1200-1880 g were purchased from Triple F Farms (Sayre, Pa.) and housed in individual cages at standardized conditions (12:12 h light/dark cycle and 21-23° C.). Prior to the experiments, the ferrets were allowed a 7-10 day acclimatization period to the animal facility. The ferrets were fed a carnivore diet with free access to food and water throughout the course of the study. The use of the ferret model of emesis and the drug treatment were preapproved in accordance with facility standards. A cisplatin solution was prepared by adding preheated (70° C.) saline to cisplatin powder (Sigma-Aldrich Co.) and stirring or sonicating at 40° C. until dissolved. Following administration of the cisplatin and either MCI-225, ondansetron or vehicle alone, the occurrence of retching and vomiting was monitored for a period of 6 hours. Retching was defined as the number of forceful rhythmic contractions of the abdomen occurring with the animal in characteristic posture, but not resulting in the expulsion of upper gastrointestinal tract contents (Watson et al., British Journal of Pharmacology, 115(1): 84-94 (1994)). […] The latency of the retching or vomiting response and the number of episodes were recorded for each animal and summarized for each experimental group (Wright et al., Infect. Immun., 68(4): 2386-9 (2000)). […]

[5] = test system: acetic acid-induced colonic hypersensitivity; assay: Visceromotor response to colorectal distension, acetic acid-induced colonic hypersensitivity; assay type: in vivo, rat
Method: A 10 min recovery was allowed between distensions.
Adult male rats were used in the study.
Ten minute recovery periods were allowed following each distension.
Statistical significance of the treatment groups was assessed using one-way ANOVA followed by Tukey post-test. […] (*) p<0.05, (**) p<0.01, (***) p<0.001

- colour of material surface after storage [1]: gone yellow
Compound: 4-(2-fluorophenyl)-6-methyl-2-(piperazin-1-yl)thieno[2,3-d]pyrimidine hydrochloride [MCI-225]

Compound: CNCCC(Oc1ccccc1OC)c1ccccc1 (stereo not drawn) [Nisoxetine]
- WAS-induced fecal pellet output during 1 hour ([2]; rats, 3, 10 and 30 mg/kg i.p.): reduced by all doses
- fecal pellets produced during WAS compared to the vehicle treated group ([2]; rats, 10 and 30 mg/kg i.p.): significantly fewer
- small intestinal transit ([3]; rats, 30 mg/kg i.p.): almost completely inhibited
- small intestinal transit ([3]; rats, 3 or 10 mg/kg i.p.): tendency to decrease

- behavioral activity of the rats ([5]; rats, 1, 5 or 10 mg/kg i.p.): No significant changes
Compound: Cc1nccn1CC1CCc2c(c3ccccc3n2C)C1=O (stereo not drawn) [Ondansetron]
- stress-induced fecal pellet output during 1 hour of WAS ([2]; rats, 1, 5 and 10 mg/kg i.p.): dose-dependent inhibition
- latency of the first emetic response following cisplatin treatment [4]: increase in the latency
- number of emetic events induced by cisplatin [4]: dose-dependently reduced
- small intestinal transit ([3]; rats, 1, 5 or 10 mg/kg i.p.): significant reduction
- responses to moderate (30 mmHg) and high (60 mmHg) intraluminal pressure ([5]; rats, 10 mg/kg i.p. (highest dose)): did not abolish the responses
- number of abdominal contractions (visceromotor response to colorectal distension) ([5]; rats, 1, 5 or 10 mg/kg i.p., all distension pressures, vs vehicle): dose-dependent decrease
